Experiments:
[1] = molecular target: CDK2/Cyclin E2 (Homo sapiens, UniProt P24941); assay: CDK2/CyclinE2 enzymatic activity assay (TR-FRET); format: biochemical; conditions: ATP 1 mM final, read-out: CDK2_E1 IC50
Procedure: CDK2/CyclinE2 Enzymatic Activity Assay
(§1) The inhibitory activity of compounds was evaluated in vitro using TR-FRET assay with white 384-well low volume microplate (Greiner Bio-One). CDK2/Cyclin E2 catalyzed phosphorylation of peptide in the presence and absence of compounds was measured and used in IC50 determination. Recombinant protein complex CDK2/Cyclin E2, expressed from insect cell, was purchased from ProQinase. Testing compounds were dissolved in DMSO at 1 mM and tested in 9-dose IC50 mode. The reaction mixture was prepared by mixing CDK2/CyclinE2 (1 nM final), ULight-4E-BP1 (50 nM final, Perkinelmer, TRF0128-D), and ATP (1 mM final) in assay buffer (20 mM of HEPES pH 7.4, 1 mM of EGTA, 0.05% BSA, 0.005% Tween 20, and 1 mM TCEP). The compound of interest in DMSO was added to each well in 3-fold serial dilution by dispenser (TECAN D300E) to make a 9.9 μL of reaction mixture. After 20 minutes preincubation at room temperature, 0.1 μL MgCl2 (10 mM final) was added to initiate the reaction. Following a 45 minutes incubation at 37° C., the reaction was stopped by addition of 2 μL of quenching buffer consisting of Lance detection buffer (Perkinelmer CR97-100C), LANCE Ultra Europium-anti-P-4E-BP1 (Perkinelmer, TRF0216-D), EDTA, and incubate at room temperature for additional 60 minutes in dark. The reaction signal was measured by Envision multimode plate reader (PerkinElmer, 2102-0010). IC50 values were determined by fitting the data to the standard 4 parameters with Hill Slope using GraphPad Prism software.

[2] = molecular target: T1, CDK4/Cyclin D1 (Homo sapiens, UniProt P11802); assay: CDK4/CyclinD1 enzymatic activity assay (TR-FRET); format: biochemical; conditions: ATP 2 mM final, read-out: CDK4_D1 IC50
T1 construct: purchased ProQinase; host or cells: insect cell
T1 sequence (P11802 whole entry): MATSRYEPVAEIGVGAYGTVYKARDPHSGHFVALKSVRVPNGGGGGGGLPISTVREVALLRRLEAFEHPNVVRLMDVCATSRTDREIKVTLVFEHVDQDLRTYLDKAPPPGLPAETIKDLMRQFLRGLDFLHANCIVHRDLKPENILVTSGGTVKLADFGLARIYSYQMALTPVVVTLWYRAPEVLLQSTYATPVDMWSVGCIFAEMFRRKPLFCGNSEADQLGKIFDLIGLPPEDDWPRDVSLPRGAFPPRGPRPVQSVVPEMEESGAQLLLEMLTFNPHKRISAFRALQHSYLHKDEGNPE
T1 sequence (P24385 whole entry partner): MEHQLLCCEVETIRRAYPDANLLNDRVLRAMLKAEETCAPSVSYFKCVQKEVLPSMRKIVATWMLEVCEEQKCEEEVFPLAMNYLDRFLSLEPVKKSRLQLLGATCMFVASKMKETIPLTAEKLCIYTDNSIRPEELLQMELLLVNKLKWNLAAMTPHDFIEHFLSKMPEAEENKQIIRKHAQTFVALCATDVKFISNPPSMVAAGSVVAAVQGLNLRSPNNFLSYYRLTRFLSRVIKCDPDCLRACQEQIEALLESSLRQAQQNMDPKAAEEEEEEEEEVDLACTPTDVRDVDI
Procedure: CDK4/CyclinD1 Enzymatic Activity Assay
as §1, with “Bio-One). CDK4/Cyclin D1” for “Bio-One). CDK2/Cyclin E2”, “complex CDK4/Cyclin D1,” for “complex CDK2/Cyclin E2,”, “mixing CDK4/CyclinD1” for “mixing CDK2/CyclinE2”, “ULight-4E-BP1 (100” for “ULight-4E-BP1 (50”, “ATP (2” for “ATP (1”

[3] = tested on: OVCAR3 p-RB; assay: pRB ICW assay in OVCAR3 cells; format: cell-based; conditions: Homo sapiens, OVCAR-3, 2 hours incubation with compound
Procedure: pRB ICW Assay in OVCAR3 Cells
OVCAR3 cells were maintained in RPMI (Corning, Catalog #: 10-040-CV) supplemented with 10% v/v FBS (Gibco, Catalog #: 26140-079), 1% v/v Penicillin Streptomycin (Gibco, Catalog #15140-122.) OVCAR3 cells grown at log phase were trypsinized, counted, and resuspended in fresh medium to reach a final density of 6.7e4 cells/ml and 75 μL of culture were dispensed into a 384-well plate (Falcon, cat #353962) using Multidrop Combi dispenser (Thermo Scientific). The next day, compounds were dispensed as a 9-point, ½ log serial dilution using a Tecan digital dispenser (D300e), and cells were incubated with compound for 2 hours in a humidified incubator at 37° C. A reference compound at a final concentration of 10 μM was used as a control for maximum inhibition. Each compound was tested in duplicates in each experiment. At the end of the incubation, 25 μl of 16% paraformaldehyde (Electron Microscopy, cat #15710) was slowly added to each well and the plate was incubated at room temperature (RT) for 30 minutes to fix cells. Cells were then permeabilized by incubating with 50 μl/well of wash buffer (1×PBS with 0.1% Triton X-100) 5×5 minutes, followed by 1 hour blocking with 30 μl/well of Odyssey blocking buffer (Li—COR, cat #927-40000), all at RT. Anti-phosphor RB antibody (Cell signaling 8516S) was diluted 1:1000 in Odyssey blocking buffer and 20 μl was added to all wells and incubated overnight in 4° C. with gently rocking. The next day, cells were washed 5×5 min with 50 μl/well of wash buffer, followed with 1 hour incubation with secondary antibody and DRAQ5 diluted in Odyssey blocking buffer (1:500 dilution for secondary antibody and 1:2000 dilution for DRAQ5), 5×5 min washes, and one last wash with water. Plates were dried in 37° C. oven for 5 min and scanned using Li—COR Odyssey CLx imaging system to acquire intensities at 700 and 800 nm channels.

Row | Structure (SMILES) | IC50 [1] | IC50 [2] | IC50 [3]
1 | Cn1cnc(S(=O)(=O)N2CC[C@H](Nc3ncc(C(F)(F)F)c(-c4cc5c(s4)C(C)(C)NC5=O)n3)[C@H](F)C2)c1 [Example 15, 2-(2-(((3R,4S)-3-fluoro-1-((1-methyl-1H-imidazol-4-yl)sulfonyl)piperidin-4-yl)amino)-5-(trifluoro-methyl)pyrimidin-4-yl)-6,6-dimethyl-5,6-dihydro-4H-thieno[2,3-c]pyrrol-4-one] | ≤ 100 nM | ≤ 100 nM | ≤ 100 nM
2 | Cn1cc(S(=O)(=O)N2CC[C@@H](Nc3ncc(C(F)(F)F)c(-c4cc5c(s4)C(C)(C)NC5=O)n3)[C@H](F)C2)cn1 [Example 16, 2-(2-(((3R,4R)-3-fluoro-1-((1-methyl-1H-pyrazol-4-yl)sulfonyl)piperidin-4-yl)amino)-5-(trifluoro-methyl)pyrimidin-4-yl)-6,6-dimethyl-5,6-dihydro-4H-thieno[2,3-c]pyrrol-4-one] | ≤ 100 nM | ≤ 100 nM | ≤ 100 nM
3 | CC1(C)NC(=O)c2cc(-c3nc(NC4CCN(S(C)(=O)=O)CC4)ncc3C(F)(F)F)sc21 [Example 12, 6,6-dimethyl-2-(2-((1-(methylsulfonyl)piperidin-4-yl)amino)-5-(trifluoro-methyl)pyrimidin-4-yl)-5,6-dihydro-4H-thieno[2,3-c] pyrrol-4-one] | ≤ 100 nM | ≤ 100 nM | ≤ 100 nM
4 | Cc1c(-c2nc(N[C@H]3CCN(S(C)(=O)=O)C[C@H]3C)ncc2F)sc2c1C(=O)NC2 [Example 5, 2-(5-Fluoro-2-(((3R,4S)-3-methyl-1-(methylsulfonyl)piperidin-4-yl)amino)pyrimidin-4-yl)-3-methyl-5,6-dihydro-4H-thieno[2,3-c]pyrrol-4-one] | ≤ 100 nM |  | ≤ 100 nM
5 | C[C@@H]1CN(S(=O)(=O)c2cn(C)cn2)CC[C@@H]1Nc1ncc(C(F)(F)F)c(-c2cc3c(s2)C(C)(C)NC3=O)n1 [Example 8, 6,6-dimethyl-2-(2-(((3R,4S)-3-methyl-1-((1-methyl-1H-imidazol-4-yl)sulfonyl)piperidin-4-yl)amino)-5-(trifluoromethyl)pyrimidin-4-yl)-5,6-dihydro-4H-thieno[2,3-c]pyrrol-4-one] | ≤ 100 nM | ≤ 100 nM | ≤ 100 nM
6 | Cc1c(-c2nc(NC3CCN(S(C)(=O)=O)CC3)ncc2F)sc2c1C(=O)NC2 [Example 4, 2-(5-fluoro-2-((1-(methylsulfonyl)piperidin-4-yl)amino)pyrimidin-4-yl)-3-methyl-5,6-dihydro-4H-thieno [2,3-c]pyrrol-4-one] | ≤ 100 nM |  | ≤ 100 nM
7 | Cc1c(-c2nc(NC3CCN(S(C)(=O)=O)CC3)ncc2F)sc2c1C(=O)NC2(C)C [Example 3, 2-(5-fluoro-2-((1-(methylsulfonyl)piperidin-4-yl)amino)pyrimidin-4-yl)-3,6,6-trimethyl-5,6-dihydro-4H-thieno[2,3-c]pyrrol-4-one] | ≤ 100 nM | ≤ 100 nM | ≤ 100 nM
8 | C[C@@H]1CN(S(C)(=O)=O)CC[C@@H]1Nc1ncc(C(F)(F)F)c(-c2cc3c(s2)CNC3=O)n1 [Example 18, 2-(2-(((3R,4S)-3-methyl-1-(methylsulfonyl)piperidin-4-yl)amino)-5-(trifluoro-methyl)pyrimidin-4-yl)-5,6-dihydro-4H-thieno[2,3-c]pyrrol-4-one] | ≤ 100 nM |  | 100 to 500 nM
9 | CS(=O)(=O)N1CC[C@H](Nc2ncc(C(F)(F)F)c(-c3cc4c(s3)CNC4=O)n2)[C@H](F)C1 [Example 19, 2-(2-(((3R,4S)-3-fluoro-1-(methylsulfonyl)piperidin-4-yl)amino)-5-(trifluoro-methyl)pyrimidin-4-yl)-5,6-dihydro-4H-thieno[2,3-c]pyrrol-4-one] | ≤ 100 nM |  | ≤ 100 nM
10 | O=C1NCc2sc(-c3nc(N[C@H]4CCN(S(=O)(=O)c5cn[nH]c5)C[C@H]4F)ncc3C(F)(F)F)cc21 [Example 22, 2-(2-(((3R,4S)-1-((1H-pyrazol-4-yl)sulfonyl)-3-fluoropiperidin-4-yl)amino)-5-(trifluoromethyl)pyrimidin-4-yl)-5,6-dihydro-4H-thieno[2,3-c]pyrrol-4-one] | ≤ 100 nM |  | ≤ 100 nM

Further lines, results first:

Row | IC50 [1] | IC50 [2] | IC50 [3] | Structure (SMILES)
11 | ≤ 100 nM | > 500 nM | > 500 nM | CS(=O)(=O)N1CCC(Nc2ncc(C(F)(F)F)c(-c3cc4c(s3)C(=O)NC4)n2)CC1 [Example 24, 2-(2-((1-(Methylsulfonyl)piperidin-4-yl)amino)-5-(trifluoromethyl)pyrimidin-4-yl)-4,5-dihydro-6H-thieno[2,3-c]pyrrol-6-one]
12 | ≤ 100 nM | ≤ 100 nM | ≤ 100 nM | C[C@@H]1CN(S(=O)(=O)c2cnn(C)c2)CC[C@@H]1Nc1ncc(C(F)(F)F)c(-c2cc3c(s2)CNC3=O)n1 [Example 21, 2-(2-(((3R,4S)-3-methyl-1-((1-methyl-1H-pyrazol-4-yl)sulfonyl)piperidin-4-yl)amino)-5-(trifluoro-methyl)pyrimidin-4-yl)-5,6-dihydro-4H-thieno[2,3-c]pyrrol-4-one]
13 | ≤ 100 nM | ≤ 100 nM | ≤ 100 nM | C[C@@H]1CN(S(=O)(=O)c2cn[nH]c2)CC[C@@H]1Nc1ncc(C(F)(F)F)c(-c2cc3c(s2)C(C)(C)NC3=O)n1 [Example 9, 2-(2-(((3R,4S)-1-((1H-pyrazol-4-yl)sulfonyl)-3-methylpiperidin-4-yl)amino)-5-(trifluoro-methyl)pyrimidin-4-yl)-6,6-dimethyl-5,6-dihydro-4H-thieno[2,3-c]pyrrol-4-one]
14 | ≤ 100 nM | ≤ 100 nM | ≤ 100 nM | Cn1cc(S(=O)(=O)N2CCC(Nc3ncc(C(F)(F)F)c(-c4cc5c(s4)CNC5=O)n3)CC2)cn1 [Example 20, 2-(2-((1-((1-methyl-1H-pyrazol-4-yl)sulfonyl)piperidin-4-yl)amino)-5-(trifluoromethyl)pyrimidin-4-yl)-5,6-dihydro-4H-thieno[2,3-c]pyrrol-4-one]
15 | ≤ 100 nM | ≤ 100 nM | ≤ 100 nM | C[C@@H]1CN(S(=O)(=O)c2cnn(C)c2)CC[C@@H]1Nc1ncc(C(F)(F)F)c(-c2cc3c(s2)C(C)(C)NC3=O)n1 [Example 7, 6,6-dimethyl-2-(2-(((3R,4S)-3-methyl-1-((1-methyl-1H-pyrazol-4-yl)sulfonyl)piperidin-4-yl)amino)-5-(trifluoromethyl)pyrimidin-4-yl)-5,6-dihydro-4H-thieno[2,3-c]pyrrol-4-one]
